Assay results from patent US5491135A (priority 1993, dated 1996).
≈ marks a conversion by molar mass, not a printed value. Where “and” joins values, the source holds several entries; their conditions need not be identical. Equal entries are not always repeated. Entries after “also recorded” stand apart in the source; their conditions may differ. Where two headings read alike, the source gives them in different places.

Columns and labels:
[1] = tested on: HCMV strain AD169; format: cell-based
[2] = tested on: clinical HCMV isolate; format: cell-based
[3] = tested on: HCMV strain AD 169; experiment: Rabbit HCMV ascending dose efficacy and time course recovery (Example 7); details: for Average HCMV titer / HCMV Recovered, OD / HCMV Recovered, OS / HCMV Titer, OD / HCMV Titer, OS / HCMV recovery frequency / Optic neuritis score (ONH) / Vitreo-retinal score: PALA 50 or DHPG 10 mg/kg/d; for Vitreo-retinal score: sum of both eyes
[4] = tested on: HCMV strain AD 169; experiment: Rabbit HCMV efficacy and time course recovery (Example 6)
[5] = PALA 50, DHPG 10 or both, mg/kg/day i.v.
[6] = day 3, DHPG 10 or PALA 50 + DHPG 10 mg/kg/d, sum of both eyes
[7] = day 3, PALA 50, DHPG 10 or both, mg/kg/d
[8] = day 3, sham-inoculated S1-S5, dose as groups 1-5
[9] = day 4, DHPG 10 or PALA 50 + DHPG 10 mg/kg/d, sum of both eyes
[10] = day 4, PALA 50, DHPG 10 or both, mg/kg/d
[11] = day 4, sham-inoculated S1-S5, dose as groups 1-5
[12] = day 5, DHPG 10 or PALA 50 + DHPG 10 mg/kg/d, sum of both eyes
[13] = day 5, PALA 50, DHPG 10 or both, mg/kg/d
[14] = day 5, sham-inoculated S1-S5, dose as groups 1-5
[15] = day 6, PALA 50, DHPG 10 or both, mg/kg/d
[16] = day 6, sham-inoculated S1-S5, dose as groups 1-5
[17] = day 7, DHPG 10 or PALA 50 + DHPG 10 mg/kg/d, sum of both eyes
[18] = day 7, sham-inoculated S1-S5, dose as groups 1-5
[19] = day 10, DHPG 10 or PALA 50 + DHPG 10 mg/kg/d, sum of both eyes
[20] = day 10, sham-inoculated S1-S5, dose as groups 1-5

## Nc1nc(O)c2ncn(COC(CO)CO)c2n1 [DHPG, reference compound]
[1]; Human betaherpesvirus 5, AD169, Hs68, AD 169, read-out: ED50 (the source's name)
  EC50: 19 µg/mL (≈ 74.4 µM)
[1]; day 0 PI
  Cell associated HCMV titer: 10^2 PFU/ml
  Cell free (supernatant) HCMV titer: 10^5 PFU/ml
[1]; day 1 PI
  Cell associated HCMV titer: 10^2 PFU/ml
  Cell free (supernatant) HCMV titer: 10^1 PFU/ml
[1]; day 2 PI
  Cell associated HCMV titer: 10^1 PFU/ml
  Cell free (supernatant) HCMV titer: 10^1 PFU/ml
[1]; day 3 PI
  Cell associated HCMV titer: 10^1 PFU/ml
  Cell free (supernatant) HCMV titer: 10^1 PFU/ml
[1]; day 4 PI
  Cell associated HCMV titer: 10^1 PFU/ml
  Cell free (supernatant) HCMV titer: 0 PFU/ml
[1]; day 5 PI
  Cell associated HCMV titer: 0 PFU/ml
  Cell free (supernatant) HCMV titer: 0 PFU/ml
[1]; day 6 PI
  Cell associated HCMV titer: 10^1 PFU/ml
[1]; day 7 PI
  Cell associated HCMV titer: 0 PFU/ml
[2]
  reduction of HCMV titer: effective in reducing the titer
[2]; day 0 PI
  Cell associated HCMV titer: 10^2 PFU/ml
  Cell free (supernatant) HCMV titer: 10^5 PFU/ml
[2]; day 1 PI
  Cell associated HCMV titer: 10^3 PFU/ml
  Cell free (supernatant) HCMV titer: 10^1 PFU/ml
[2]; day 2 PI
  Cell associated HCMV titer: 10^2 PFU/ml
  Cell free (supernatant) HCMV titer: 10^1 PFU/ml
[2]; day 3 PI
  Cell associated HCMV titer: 10^1 PFU/ml
  Cell free (supernatant) HCMV titer: 10^1 PFU/ml
[2]; day 4 PI
  Cell associated HCMV titer: 10^1 PFU/ml
  Cell free (supernatant) HCMV titer: 10^1 PFU/ml
[2]; day 5 PI
  Cell associated HCMV titer: 0 PFU/ml
  Cell free (supernatant) HCMV titer: 0 PFU/ml
[2]; day 6 PI
  Cell associated HCMV titer: 10^1 PFU/ml
[2]; day 7 PI
  Cell associated HCMV titer: 10^1 PFU/ml
[3]; PALA 50 or DHPG 10 mg/kg/day i.v.
  clinical disease / efficacy: did reduce the development of HCMV-induced optic nerve disease severity; also recorded: vitreitis was only marginally affected
[3]; day 3
  Average HCMV titer: 10^3 pfu
  HCMV Recovered, OD: +
  HCMV Recovered, OS: - and +
  HCMV Titer, OD: 10^4 pfu
  HCMV Titer, OS: 10^3 pfu
  HCMV recovery frequency: 3/4
  Optic neuritis score (ONH): 5.0 and 4.0
  Vitreo-retinal score: 4.75 and 5.0
[3]; day 4
  HCMV Recovered, OD: +
  HCMV Recovered, OS: -
  HCMV Titer, OD: 10^2 pfu and 10^3 pfu
  HCMV recovery frequency: 2/4
  Optic neuritis score (ONH): 6.0 and 5.0
  Vitreo-retinal score: 3.75 and 5.75
[3]; day 5
  Average HCMV titer: 10^2 pfu
  HCMV Recovered, OD: - and +
  HCMV Recovered, OS: + and -
  HCMV Titer, OD: 10^2 pfu
  HCMV Titer, OS: 10^2 pfu
  HCMV recovery frequency: 2/4
  Optic neuritis score (ONH): 4.0 and 5.0
  Vitreo-retinal score: 4.0 and 5.0
[3]; day 6
  Average HCMV titer: 10^1 pfu
  HCMV Recovered, OD: -
  HCMV Recovered, OS: - and +
  HCMV Titer, OD: 10^2 pfu
  HCMV recovery frequency: 1/4
  Optic neuritis score (ONH): 2.0
[3]; day 7
  Optic neuritis score (ONH): 2.0
  Vitreo-retinal score: 3.25 and 5.5
[3]; day 12
  HCMV Recovered, OD: -
  HCMV Recovered, OS: -
[4]; [5]
  HCMV recovery: better than the mid-dose and low-dose combination therapy group and the single agent PALA group and the placebo therapy group
  clinical disease: did reduce the development of HCMV chorioretinal infection and disease and vitreitis
[4]; day 3, DHPG 10 or PALA 50 + DHPG 10 mg/kg/d
  Optic neuritis score (ONH): 2
[4]; [6]
  Chorioretinal score (C): 0
  Vitreitis score (V): 3 and 2
[4]; [7]
  HCMV Recovered, OD: +
  HCMV Recovered, OS: +
  HCMV Titer, OD: 10^3 pfu
  HCMV Titer, OS: 10^3 pfu
  HCMV recovery frequency: 2/2
[4]; [8]
  Chorioretinal score (C): 0
  Vitreitis score (V): 0
[4]; day 3, sham-inoculated S2-S5, dose as groups 2-5
  Optic neuritis score (ONH): 0
[4]; [9]
  Chorioretinal score (C): 0.5
  Vitreitis score (V): 4 and 4.25
[4]; [10]
  HCMV Recovered, OD: +
  HCMV Recovered, OS: -
  HCMV Titer, OD: 10^1 pfu
  HCMV recovery frequency: 1/2
[4]; [11]
  Chorioretinal score (C): 0
  Vitreitis score (V): 0
[4]; day 4, sham-inoculated S2-S5, dose as groups 2-5
  Optic neuritis score (ONH): 0
[4]; day 5, DHPG 10 or PALA 50 + DHPG 10 mg/kg/d
  Optic neuritis score (ONH): 4 and 5
[4]; [12]
  Chorioretinal score (C): 0.5
  Vitreitis score (V): 4.5 and 2.75
[4]; [13]
  HCMV Recovered, OD: -
  HCMV Recovered, OS: -
  HCMV recovery frequency: 0/2
[4]; [14]
  Chorioretinal score (C): 0
  Vitreitis score (V): 0
[4]; day 5, sham-inoculated S2-S5, dose as groups 2-5
  Optic neuritis score (ONH): 0
[4]; day 6, DHPG 10 or PALA 50 + DHPG 10 mg/kg/d, sum of both eyes
  Vitreitis score (V): 3.5 and 2.5
[4]; [15]
  HCMV Recovered, OD: +
  HCMV Recovered, OS: -
  HCMV recovery frequency: 1/2
[4]; day 6, PALA 50 or DHPG 10 mg/kg/d
  HCMV Titer, OD: 10^1 pfu
[4]; [16]
  Chorioretinal score (C): 0
  Vitreitis score (V): 0
[4]; day 6, sham-inoculated S2-S5, dose as groups 2-5
  Optic neuritis score (ONH): 0
[4]; day 7, DHPG 10 or PALA 50 + DHPG 10 mg/kg/d
  Optic neuritis score (ONH): 3 and 6
[4]; [17]
  Chorioretinal score (C): 0
  Vitreitis score (V): 3.5 and 3
[4]; [18]
  Chorioretinal score (C): 0
  Vitreitis score (V): 0
[4]; day 7, sham-inoculated S2-S5, dose as groups 2-5
  Optic neuritis score (ONH): 0
[4]; day 10, DHPG 10 or PALA 50 + DHPG 10 mg/kg/d
  Optic neuritis score (ONH): 3
[4]; [19]
  Chorioretinal score (C): 0
  Vitreitis score (V): 1.75 and 1.25
[4]; [20]
  Chorioretinal score (C): 0
  Vitreitis score (V): 0
[4]; day 10, sham-inoculated S2-S5, dose as groups 2-5
  Optic neuritis score (ONH): 0
